Measured values reported in patent publication US20230313181A1, “HISTIDINE-LYSINE POLYMERS AND METHODS FOR DELIVERING MRNA USING THE SAME” (UNIVERSITY OF MARYLAND, BALTIMORE, priority 2019, published 2023).
Bridges are numbered along the chain shown (N, C = ends). Roman numbers before positions name the chains, in order. Where no end group is shown, it is not given here.

Columns and labels:
MDA-MB-231 cells = experiment: mRNA transfection with HK associated lipid particles (HK polymer + DOTAP liposomes); format: cell-based; conditions: luciferase mRNA
Description: FIGS. 8A and 8B. Comparison of mRNA transfection with DOTAP and several HK polymers. To form HK associated lipid particles, the mRNA (1 μg) was initially mixed with the HK polymer (4 μg) for 30 min and then with the DOTAP liposomes (1 μg) for 30 min. HK polyplexes were prepared as described previously. These complexes were then added to the cells for 24 h before the luciferase activity was measured *, P<0.05; **, P<0.01; ***, P<0.001; […].
Transfection with HK associated lipid particles was done similarly as above with few exceptions. In brief, the HK polymer was mixed initially with mRNA at various ratios for 30 min in Opti-MEM. This was followed by adding the DOTAP cationic liposome (1,2-dioleoyl-3-trimethylam-monium-propane; […]; Roche, Basel, CH) for 30 additional min. The Opti-MEM mixture (50 μl) was then added dropwise to the cells.

[1] = Particle size, polydispersity index (PDI) and zeta potential of polyplexes (Zetasizer); format: physicochemical
Description: Particle size, polydispersity index (PDI), and zeta potential. The size, PDI, and zeta potential were determined with the Zetasizer (Malvern, Westborough, Mass.) and analyzed with software provided by the instrument manufacturer (Zetasizer software, version 6.2). Using dynamic light scattering at a 90° angle, the size of the particles were reported as the Z-average diameter from the intensity-weighted size distribution. Prior to the measurements, the samples were equilibrated to 25° C. for 2 min. Each measurement had at least ten sub-runs under the automatic mode of the software. The particle size, PDI, and zeta potential data point represent the mean±SD of three measurements. After mixing HK peptides (4 μg) and mRNA (1 μg) in 100 μl of defined media (Opti-MEM, water, or DMEM/8% FBS) for 30 min, 100 μl of additional defined media was added to the polyplex solution (total volume 200 μl) to measure the size and PDI. To determine the zeta potential, 800 μl more of the media was added (total volume 1000 μl), mixed gently, and then added to the disposable zeta cell.
Because different stabilities were observed between the H3K4b and H3K(+H)4b polyplexes, whether the sizes of these polyplexes varied based on the media in which they were prepared was investigated. […] H3K(+H)4b and H3K4b peptides (4 μg) in complex with mRNA (1 μg) were mixed with either Opti-MEM, water, or DMEM/8% FBS […]. After 1 h, the size, PDI, and zeta potential were measured.

[2] = Acid-base titration of HK polymer solutions; format: physicochemical; conditions: pH titration curves, 5 mg/ml
Description: FIG. 2. Titration of different HK peptide solutions. Solutions of polymers (5 mg/ml) (H2K4b, H3K4b, H3K(+H)4b, and H4K4b) were adjusted to pH 3 (initial volume—1 ml) and then […] aliquots of 0.05 N NaOH were stepwise added and the pH measured.
Acid-Base Titration. After polymer solutions (e.g. containing one or more of H2K4b, H3K4b, H3K(+H)4b, and H4K4b) were adjusted to pH 3.0 (5 mg/mil; initial volume—1 mil), aliquots (5 μl) of NaOH (0.05 N) were stepwise added with the pH measured (FiveEasy™ meter; InLab Solids Pro-ISM pH electrode, Mettler Toledo, Columbus, OH). Titration was stopped at about pH 9.0.

[3] = prior studies [34, 35, 45]; cited from earlier work
[4] = polyplex HK 4 μg:mRNA 1 μg in DMEM/8% FBS
[5] = polyplex HK 4 μg:mRNA 1 μg in Opti-MEM
[6] = polyplex HK 4 μg:mRNA 1 μg in Water

I: KHHHKHHHKHHHHKHHHKKKK-NH2 / II: KHHHKHHHKHHHHKHHHK / III: KHHHKHHHKHHHHKHHHK / IV: KHHHKHHHKHHHHKHHHK (amide I:19-IV:C, I:20-III:C, I:21-II:C) [H3K(+H)4b]
mRNA transfection compared with DOTAP liposomes (in words) (MDA-MB-231 cells): significantly better carriers of mRNA than the DOTAP liposomes | PDI [1, 4]: 0.307 | Size [1, 4]: 289 ± 38.2 nm | Zeta Potential [1, 4]: −12.7 ± 1.04 mV | PDI [1, 5]: 0.362 | Size [1, 5]: 1004 ± 61.1 nm | Zeta Potential [1, 5]: 2.92 ± 1.83 mV | PDI [1, 6]: 0.212 | Size [1, 6]: 234.9 ± 2.7 nm | Zeta Potential [1, 6]: 20.77 ± 1.12 mV | buffering profile / buffering capacity (in words) [2]: minimal differences in their buffering profile | carrier of siRNA (in words) [3]: effective carriers of siRNA
